The values below are quoted from earlier work in patent US6803486B2, “Selective neuronal nitric oxide synthase inhibitors” (Northwestern University, priority 2001, dated 2004).

Non-standard residues stand in square brackets, D forms with d. Residues, ends and D or L forms follow the SMILES beside them. dArg(NO2) = N=C(NCCC[C@@H](N)C(=O)O)N[N+](=O)[O-]

In general, Ki refers to a dissociation constant, usually derived from enzyme kinetics or from competition with a known ligand.

The target of one series is T1, recombinant rat nNOS (Rattus norvegicus, UniProt P29476).
T1 construct: made in house; host or cells: E. coli
Particulars: cited from earlier work.

In a further series the target is T2, recombinant murine iNOS (Mus musculus, UniProt P29477).
T2 construct: made in house; host or cells: E. coli
Particulars: Table 2; data taken from ref 10; cited from earlier work.

Another series concerns the target recombinant bovine eNOS (Bos taurus, UniProt P29473). More on the design: made in house; host or cells: E. coli. Particulars: Table 2; data taken from ref 10; cited from earlier work.
[1] abbreviates: Table 2, data taken from ref 10.

On to `COC(=O)[C@@H](CCCN=C(N)N[N+](=O)[O-])NC(=O)[C@H](N)Cc1ccccc1` [D-Phe-D-Arg^NO2-OMe] (H-[dF]-[dArg(NO2)]-OMe), for which, on recombinant rat nNOS (setting [1]), the inhibitory constant (Ki) was 2 µM, the “Selectivity ENOS/nNOS” value was 2.5 and the “Selectivity iNOS/nNOS” value is given as 1800. For the same compound, the “selectivity over iNOS” value on recombinant rat nNOS (prior art compound, nNOS over iNOS) was 1800 fold. Besides, the inhibition constant (Ki) on recombinant murine iNOS is 3600 µM. In addition, the inhibitory constant (Ki) at recombinant bovine eNOS is 5 µM.
